Measurements: US12195427B2, “MASP-2 inhibitors and methods of use” (priority 2018, dated 2025)

Assays:
MASP-2 CCP2-SP = MASP-2 CCP2-SP (Homo sapiens (Human), UniProt O00187); assay: MASP-2 co-crystallization, X-ray crystallography and structure analysis (H-bonds, van der Waals contacts); set-up: van der Waals contact distance, MASP-2 HIS 483 atom CD2 / van der Waals contact distance, MASP-2 HIS 483 atom NE2 / van der Waals contact distance, SER 654 C to compound atom / van der Waals contact distance, SER 654 O to compound atom / van der Waals contact distance, TRP 655 C to compound atom / van der Waals contact distance, MASP-2 GLY 528 atom CA / van der Waals contact distance TRP 655 atom CZ3 / van der Waals contact distance TRP 655 atom N / van der Waals contact distance TRP 655 atom CE3 / van der Waals contact distance GLY 656 atom C / van der Waals contact distance GLY 656 atom CA / van der Waals contact distance GLY 656 atom O / van der Waals contact distance, MASP-2 TYR 607 atom CD1 / van der Waals contact distance, MASP-2 PRO 606 atom O / d(C3,CA1) / d(CA1,N1)2 / d(H4,O1) / d(H4,O2) / d(O1,O2) / d(CA1,O2) / d(CA6,O1) / d(CA6,O2) / d(CA1,C5) / d(O2,H3) / d(N2,C2) / d(CA5,N2) / d(N2,C4) / d(N2,C6) / d(N2,CA3) / d(N2,O3) / d(O4,H2): unit not given beside the values;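 for Ligand-pharmacophore element distance, pharmacophore element C2: distance from averaged pharmacophore element to bound ligand; missing value means element absent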;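 for Ligand-pharmacophore element distance, pharmacophore element C3: distance from averaged pharmacophore element to bound ligand; missing value means element absent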;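 for Ligand-pharmacophore element distance, pharmacophore element C4: distance from averaged pharmacophore element to bound ligand; missing value means element absent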;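 for Ligand-pharmacophore element distance, pharmacophore element C5: distance from averaged pharmacophore element to bound ligand; missing value means element absent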
MASP-2 CCP2-SP, sequence (O00187 445-686): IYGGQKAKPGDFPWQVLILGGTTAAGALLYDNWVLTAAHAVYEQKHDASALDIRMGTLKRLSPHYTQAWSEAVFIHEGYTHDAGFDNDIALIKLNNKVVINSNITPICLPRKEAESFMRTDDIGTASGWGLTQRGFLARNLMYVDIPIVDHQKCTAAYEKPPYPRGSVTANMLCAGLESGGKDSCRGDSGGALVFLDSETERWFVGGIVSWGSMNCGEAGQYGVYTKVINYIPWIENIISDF
MASP-2 CCP2-SP, sequence (O00187 364-432 partner): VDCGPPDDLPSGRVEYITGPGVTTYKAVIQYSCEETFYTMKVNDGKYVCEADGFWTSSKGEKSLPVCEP
How it was run: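 Inhibitor complexes were obtained by soaking crystals of E. coli-expressed human MASP-2 CCP2-SP constructs, then flash-cooling in liquid nitrogen. Structures solved by molecular replacement (1Q3X search model) from synchrotron diffraction; where several poses existed, only one was analyzed, and nonbonded contacts listed can include H-bonds.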

Lectin Pathway = Lectin Pathway Activation Assay in Human Serum (mannan-coated ELISA, C3c detection); assay type: biochemical; details: 1% human serum
Method: Microtiter ELISA plate was coated with mannan from Saccharomyces cerevisiae (Sigma-Aldrich, M7504) for overnight at 4° C. in coating buffer [15 mM Na2CO3, 35 mM NaHCO3].

[1] = Table A5-1 pharmacophore: distance between elements, S2/S1 region
[2] = Table A5-2 pharmacophore distance, S3/S4 region
[3] = Table A7-1, between pharmacophore elements of the bound compound
[4] = Table A7-2, between pharmacophore elements of the bound compound

Cc1nc(N)ccc1CNC(=O)[C@H](C)NC(=O)[C@H]1C[C@H](Cc2ccc3ccccc3c2)CN1 [compound 1338, (2R,4S)—N—((S)-1-(((6-Amino-2-methylpyridin-3-yl)methyl)amino)-1-oxopropan-2-yl)-4-(naphthalen-2-ylmethyl)pyrrolidine-2-carboxamide]
H-bond distance to MASP-2 ASP 627 atom OD2 (MASP-2 CCP2-SP; Table A1 (H-Bonds), ASP 627 OD2): 3.2 | H-bond distance to MASP-2 GLY 656 atom N (MASP-2 CCP2-SP; Table A1 (H-Bonds), GLY 656 N): 3.23 | H-bond distance to MASP-2 GLY 656 atom O (MASP-2 CCP2-SP; Table A1 (H-Bonds), GLY 656 O): 2.78 | H-bond distance to MASP-2 SER 628 atom O (MASP-2 CCP2-SP; Table A1 (H-Bonds), SER 628 O): 3.04 | H-bond distance to MASP-2 SER 654 atom O (MASP-2 CCP2-SP; Table A1 (H-Bonds), SER 654 O): 2.99 | H-bond distance to MASP-2 SER 657 atom O (MASP-2 CCP2-SP; Table A1 (H-Bonds), SER 657 O): 2.93 | van der Waals contact distance, MASP-2 HIS 483 atom CD2 (MASP-2 CCP2-SP; Table A2-1): 3.58 | van der Waals contact distance, MASP-2 HIS 483 atom NE2 (MASP-2 CCP2-SP; Table A2-1): 3.82 | van der Waals contact distance, MASP-2 ALA 527 atom C (MASP-2 CCP2-SP; Table A2-2): 3.67 | van der Waals contact distance, MASP-2 PHE 529 atom CE2 (MASP-2 CCP2-SP; Table A2-3): 3.86 | van der Waals contact distance, MASP-2 amino acid atom to compound atom (MASP-2 CCP2-SP; Table A2-9, ARG 630, AA atoms CG, CZ): 3.75 | van der Waals contact distance, VAL 653 CG1 to compound atom (MASP-2 CCP2-SP; Table A2-11): 3.33 | van der Waals contact distance, TRP 655 CA to compound atom (MASP-2 CCP2-SP; Table A2-12): 3.4 | van der Waals contact distance TRP 655 atom CE3 (MASP-2 CCP2-SP; Table A2-13, MASP-2 TRP 655 CE3, compound atom in line below): 3.83 | van der Waals contact distance TRP 655 atom CZ3 (MASP-2 CCP2-SP; Table A2-13, MASP-2 TRP 655 CZ3): 3.74 | van der Waals contact distance TRP 655 atom N (MASP-2 CCP2-SP; Table A2-13, MASP-2 TRP 655 N): 3.9 | Ligand-pharmacophore element distance, pharmacophore element C2 (MASP-2 CCP2-SP; Table A4-1, element C2): 0 | Ligand-pharmacophore element distance, pharmacophore element C3 (MASP-2 CCP2-SP; Table A4-1, element C3): 0.12 | Ligand-pharmacophore element distance, pharmacophore element C4 (MASP-2 CCP2-SP; Table A4-1, element C4): 0 | Ligand-pharmacophore element distance, pharmacophore element C5 (MASP-2 CCP2-SP; Table A4-1, element C5): 0 | Ligand-pharmacophore element distance, pharmacophore element C6 (MASP-2 CCP2-SP; Table A4-1, element C6): 0 | Ligand-pharmacophore element distance, pharmacophore element C7 (MASP-2 CCP2-SP; Table A4-1, element C7): 0 | Ligand-pharmacophore element distance, pharmacophore element CA1 (MASP-2 CCP2-SP; Table A4-1, element CA1): 0.55 | Ligand-pharmacophore element distance, pharmacophore element CA2 (MASP-2 CCP2-SP; Table A4-1, element CA2): 0.59 | Ligand-pharmacophore element distance, pharmacophore element CA3 (MASP-2 CCP2-SP; Table A4-1, element CA3): 0 | Ligand-pharmacophore element distance, pharmacophore element CA4 (MASP-2 CCP2-SP; Table A4-1, element CA4): 1.21 | Ligand-pharmacophore element distance, pharmacophore element CA5 (MASP-2 CCP2-SP; Table A4-1, element CA5): 0 | Ligand-pharmacophore element distance, pharmacophore element CA6 (MASP-2 CCP2-SP; Table A4-1, element CA6): 0 | d(C3,CA1) (MASP-2 CCP2-SP; [1]): 2.88 | d(CA1,N1)2 (MASP-2 CCP2-SP; [1]): 1.37 | d(CA1,O1) (MASP-2 CCP2-SP; [1]): 4.35 | d(CA1,O2) (MASP-2 CCP2-SP; [1]): 3.80 | d(H4,O1) (MASP-2 CCP2-SP; [1]): 4.33 | d(H4,O2) (MASP-2 CCP2-SP; [1]): 3.75 | d(O1,O2) (MASP-2 CCP2-SP; [1]): 3.35 | d(N2,CA2) (MASP-2 CCP2-SP; [2]): 6.05 | d(O2,H3) (MASP-2 CCP2-SP; [2]): 4.29 | d(O2,N2) (MASP-2 CCP2-SP; [2]): 2.74 | a(C3, CA1, O1) (MASP-2 CCP2-SP; Table A6-1 pharmacophore angle): 148.99 | a(CA1, O1, O2) (MASP-2 CCP2-SP; Table A6-1 pharmacophore angle): 105.30 | a(O1, O2, H4) (MASP-2 CCP2-SP; Table A6-1 pharmacophore angle): 131.78 | a(N1, CA1, O1) b) (MASP-2 CCP2-SP; Table A6-1 pharmacophore angle, Methyl-amino-pyridine compounds): 173.72 | a(O1, O2, H3) (MASP-2 CCP2-SP; Table A6-2 pharmacophore angle): 148.03 | a(O1, O2, N2) (MASP-2 CCP2-SP; Table A6-2 pharmacophore angle): 141.48 | a(O2, N2, CA2) (MASP-2 CCP2-SP; Table A6-2 pharmacophore angle): 157.11 | Pharmacophore torsion angle a(C3, CA1, O1, H4) (MASP-2 CCP2-SP; [3]): 23.02 | Pharmacophore torsion angle a(H4, O1, O2, H3) (MASP-2 CCP2-SP; [3]): 52.11 | Pharmacophore torsion angle a(H4, O1, O2, N2) (MASP-2 CCP2-SP; [3]): 140.39 | Pharmacophore torsion angle a(N1, CA1, O1, H4) (MASP-2 CCP2-SP; [3]): −3.32 | Pharmacophore torsion angle a(O1, H4, O2, CA1) (MASP-2 CCP2-SP; [3]): −85.13 | Pharmacophore torsion angle a(O1, O2, N2, CA2) (MASP-2 CCP2-SP; [4]): 124.64 | Pharmacophore torsion angle a(O1, O2, N2, CA4) (MASP-2 CCP2-SP; [4]): 116.54 | IC50 (Lectin Pathway): 50 to 500 nM
